Data published in US4929736A, “Latent isocynate derivatives useful for deactivating enzymes” (Board of Trustees of the Wichita State University, priority 1986, dated 1990).

Legend:
[1] = target: T1, Human leukocyte elastase (HLE) (Homo sapiens, UniProt P08246); assay: Spectrophotometric assay of HLE inactivation (in vitro); type: biochemical
T1 construct: purchased Elastin Products, St. Louis, Mo
T1 sequence (P08246 30-267): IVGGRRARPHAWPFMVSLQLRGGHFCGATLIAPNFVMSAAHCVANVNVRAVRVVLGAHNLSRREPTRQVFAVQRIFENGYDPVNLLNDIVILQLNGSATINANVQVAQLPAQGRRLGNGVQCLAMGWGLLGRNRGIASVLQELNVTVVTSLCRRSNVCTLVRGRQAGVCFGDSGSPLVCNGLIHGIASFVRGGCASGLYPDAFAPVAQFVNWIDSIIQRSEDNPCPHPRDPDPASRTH
Protocol: The appropriate amount of inhibitor in acetonitrile was mixed with PPE in phosphate buffer solution and placed in a constant temperature bath. Aliquots were withdrawn at different time intervals and transferred to a cuvette containing 100 uL of substrate, 140 uL of acetonitrile, and 2 mL of phosphate buffer, pH 6.5. After incubating for 30 seconds, the absorbance change was monitored for two minutes at 347.5 nm. […] Controlled reactions for 100% PPE activity were run in the presence of acetonitrile. A similar procedure was followed for HLE.
The reaction of an irreversible inhibitor with PPE and HLE may be illustrated by the scheme shown below: [drawing 5] where EI is the noncovalently bound enzyme-inactivator complex and E-I is the final product with the inhibitor covalently bound to the enzyme. The kinetics data were analyzed according to known procedures. The apparent pseudo-first-order inactivation rate constants were determined from the slopes of semilogarithmic plots of enzymatic activity remaining versus time using the following equation: [formula] where Et /EO is the amount of active enzyme remaining after time "t".
The assay procedure used was the procedure identified relative to the tests above in Table I.
(kobsd) were determined by plotting in [E]t /[E]o vs time.

[2] = target: Porcine pancreatic elastase (PPE) (Sus scrofa, UniProt P00772); assay: Spectrophotometric assay of PPE inactivation (in vitro); type: biochemical; conditions: two tenths umoles
[3] = tested on: PPE-induced emphysema in ICR mice; assay: Simultaneous intratracheal instillation of PPE with inhibitor, emphysema induction; type: in vivo, mouse; conditions: for Emphysema: 10 days
Description: (§1) Animal models of emphysema include intratracheal administration of an elastolytic protease (PPE, HLE or papain) to cause a slowly progressive, destructive lesion in the lung. These proteases induce a lesion that is evident in the first few hours.
(§2) The method used for in vivo evaluation involved injection of a test solution into the trachea, or directly into one bronchus. In general, the method of Hayes et al J. Pathol, 117, 1-14 (1975) was used. A fine teflon tubing was connected to a pipette and inserted into the trachea after the animals were lightly anesthetized by IP injection. The contents of the pipette were then ejected. […] It was further determined that instillation of 40 ug of PPE in the same volume causes an unambigous emphysematous lesion which is restricted to the instilled lobe. After 7 to 10 days to allow inflamation to subside, the animals were sacrificed followed by exsanguination via the descending aorta. PPE was used rather than HLE to produce the lesion because emphysema developes over a much shorter period of time. Emphysema then was induced under acute condition so that the effects of the compounds tested could be investigated under the time constraints of a laboratory procedure. PPE with an animal model has been used in research in the past to study other, unrelated, inhibitors. (Bergeson, S. H. et al., European Patent No. 0189305 (1986).
Animals were also used to evaluate the effect of simultaneous intratracheal installation of PPE with the above inhibitor compound. The ICR mice in this experiment were used to evaluate the effect of the inhibitor in preventing emphysema induction. Table IX below illustrates the results of these tests:
All animals were sacrificed ten days after instillation.

ICR mice = assay: Tolerance of mice to IP or IT injection of inhibitor; type: in vivo, mouse; conditions: all treatments of Table VIII
Description: as §1
as §2, with “PPE with an animal model has been used in research in the past to study other, unrelated, inhibitors. (Bergeson, S. H. et al., European Patent No. 0189305 (1986).” left out
Initially, the tolerance of 30-40 gram male ICR mice to intraperitoneal (IP) or intratracheal (IT) injection of inhibitor (Compound 5, Table I) was evaluated.

[4] = tested on: Elastase-induced Emphysema in the Mouse; assay: Protection against elastase-induced emphysema in the mouse, lung histology; type: in vivo
Description: as §1, §2
In view of the fact that two tenths umoles of inhibitor is 100 times of the amount of the inhibitor necessary to inhibit the 40 ug of elastase in vitro, dosages were kept in the range of 1 to 10 umoles of inhibitor.
*Elastase: 20 ul containing 40 ug pancreatic elastase
As noted above, the method of in vivo testing is a modification of that of Hayes et al. However, the test solutions are inserted past the vocal chords into one bronchus by resistance. It was established initially that 20 ul of a solution of PPE (2 milligrams per milliter in saline) would create a reliable and unambigous emphysematous lesion. It should also be noted that the animals were scored for the presence of absence of such a lesion in any lobe without regard to the severity of the lesion.

thromboxane synthetease = conditions: cited from earlier work
[5] = 1 umole, simultaneous administration, n=4
[6] = 5 umoles, 30 min, then elastase, n=3
[7] = 10 umoles, 1 hr, then elastase, n=7
[8] = 10 umoles, 2 hr, then elastase, n=6
[9] = 10 umoles, 3 hr, then elastase, n=2

Porcine pancreatic elastase (PPE), sequence (P00772 27-266): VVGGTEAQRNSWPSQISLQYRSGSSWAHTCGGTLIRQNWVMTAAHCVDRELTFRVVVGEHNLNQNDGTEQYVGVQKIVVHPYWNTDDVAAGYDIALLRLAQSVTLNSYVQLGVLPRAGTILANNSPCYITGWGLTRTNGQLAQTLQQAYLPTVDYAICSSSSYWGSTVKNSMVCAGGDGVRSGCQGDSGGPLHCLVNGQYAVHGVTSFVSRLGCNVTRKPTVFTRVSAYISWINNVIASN

CCC[C@H](NC(=O)n1ccnc1)C(=O)OC [Compound 5, Table I, L-N-(Imidazol-1-ylcarbonyl)norvaline Methyl Ester]
effectiveness against HLE relative to PPE ([1]; HLE vs PPE in vitro): about eighty
Inhibition of HLE (in words) ([1]; listed as L-norvaline azolide): highly effective
0.2 umoles inhibitor relative to amount necessary to inhibit 40 ug elastase in vitro [2]: 100 times
Emphysema ([3]; IT 1 umole inhibitor, no PPE): No
Emphysema ([3]; IT 34 ug PPE + 1 umole inhibitor): No
Prevention of emphysema (in words) ([3]; given simultaneously with PPE): prevented emphysema
Survival (in words) (ICR mice): all animals survived
abnormal pulmonary pathology (ICR mice): no animals showed abnormal pulmonary pathology
Mouse Lung Histology, Emphysematous [4, 5]: 0
Mouse Lung Histology, Normal [4, 5]: 4
Mouse Lung Histology, Emphysematous [4, 6]: 0
Mouse Lung Histology, Normal [4, 6]: 3
Mouse Lung Histology, Emphysematous [4, 7]: 5
Mouse Lung Histology, Normal [4, 7]: 2
Mouse Lung Histology, Emphysematous [4, 8]: 6
Mouse Lung Histology, Normal [4, 8]: 0
Mouse Lung Histology, Emphysematous [4, 9]: 2
Mouse Lung Histology, Normal [4, 9]: 0
Mouse Lung Histology, Emphysematous ([4]; 10 umoles, no elastase, n=7): 0
Mouse Lung Histology, Normal ([4]; 10 umoles, no elastase, n=7): 7
tolerance of inhibitor doses ([4]; all mice, all doses): all mice treated tolerated all doses
effect on PPE in the animal model (in words) ([4]; mouse, in vivo): block the effects of PPE
toxic side effects ([4]; mouse, in vivo): devoid of any toxic side effects

c1c[nH]cn1 [imidazole]
thromboxane synthetase inhibition (in words) (thromboxane synthetease): inhibitor of thromboxane synthetease
